Laboratory results reported in patent EP0244062A2, “Use of aryl ethanol amine derivatives in the treatment of atherosclerosis” (BEECHAM GROUP PLC, priority 1986, dated 1987).

Key:
[1] = system: hypercholesterolaemic mice; assay: Cholesterol reduction in hypercholesterolaemic mice on a high cholesterol-cholic acid diet (Example 4); assay type: in vivo; details: oral; for % Reduction LDL + VLDL cholesterol: heparin precipitation
Procedure: Compound P2 provided the following results with hypercholesterolaemic mice: Mice were made hypercholesterolaemic by being fed on a high cholesterol-cholic acid diet for seven days and were dosed orally on the sixth and seventh days. Low density and very low density lipoprotein (LDL and VLDL) cholesterol were measured together by heparin precipitation.

Obese subjects [2] = assay: Clinical second study: crossover in obese subjects on a low energy high fibre diet, 2 x six weeks (Example 6); assay type: in vivo, human; details: 50 mg pfb qds first week, then 100 mg qds, fasted
Procedure: Clinical studies using compound P3: Second study Obese subjects (at least 20X above ideal weight) were given a low energy high fibre diet and treated with the compound or placebo for six weeks after which they were given the alternative treatment for a further six weeks. For the first week of treatment (weeks 1 or 7) the dose level was 50 mg pfb, qds and after this it was 100 mg qds. Serum lipids were measured in the fasted state just prior to the first dose and after each six week period of dosing. Results are means ± S.E. with the number of subjects in parentheses.

Zucker fa/fa male rats = assay: Plasma lipids in Zucker fa/fa rats dosed once daily for 39 days (Example 7); assay type: in vivo; details: 7.8µmol/kg once daily for 39 days, mean of 8 ± S.E.M.
Procedure: Zucker fa/fa male rats of about 550g were dosed once daily with either water or Compound P3 (7.8µmol/kg) for 39 days. Results are means of 8 values ± S.E.M.

Obese subjects [3] = assay: Clinical first study: obese subjects on a low energy liquid formula diet, six weeks (Example 6); assay type: in vivo, human; details: 50 mg pfb, qds for six weeks, fasted
Procedure: Clinical studies using compound P3: First study Obese subjects (at least 20% above ideal weight) were given a low energy liquid formula diet and treated with the compound (50 mg pfb, qds) or placebo for six weeks. Serum triglyceride and cholesterol were measured in the fasted state just prior to the first dose and on the morning after the last dose of compound or placebo. Results are means ± S.E. with the number of subjects in parenthesis.

Male rats = assay: Serum lipids in rats given the compound in the diet for 7 days (Example 5); assay type: in vivo; details: 0.1 g of the compound per kg of diet for 7 days, mean of 8 ± S.E.
From the text: Compound P3 provided the following results with rats: Male rats were fed on a normal diet or on a diet that contained O.lg of the compound per kg of diet for 7 days. Results are means of 8 values ± S.E.

normal mice = assay: Serum lipids in normal mice dosed daily for 28 days (Example 1); assay type: in vivo; details: normal female CFLP mice, mean of 8 ± S.E.; for Serum triglyceride: untreated 40.0±3.2, P < 0.001; for Serum cholesterol: untreated 67.6±2.4
Procedure: Compound P1 provided the following results with normal mice: Normal female CFLP mice were dosed daily at 11.00h for 28 days. One group was also dosed at 17.00h daily. 0n the day after dosing terminated they were killed at 14.00h. Results are means of 8 values ± S.E.

[4] = system: Goldthioglucose-induced obese mice; assay: Serum lipids in goldthioglucose-induced obese mice (Example 2); assay type: in vivo; details: goldthioglucose-induced obese female CFLP mice, 20 mg/kg p.o. once daily for 28 days, mean of 4 ± S.E.
Procedure: Compound Pl provided the following results with Goldthioglucose-induced obese mice: . Female CFLP mice were given goldthioglucose (0.85 mg/g body wt., i.p.) and after 17 weeks the obese mice (mean wt. 57g) were selected and randomized into two groups of 4. The compound (20 mg/kg, p.o.) or water was given once daily for 28 days and the mice were killed the day after the last dose. Results are means of 4 values ± S.E.

[5] = system: High fat diet-induced obese mice; assay: Serum lipids in high fat diet-induced obese mice (Example 3); assay type: in vivo; details: high fat diet-induced obese female CFLP mice, 20 mg/kg p.o. once daily for 28 days, mean ± S.E. (n=12)
Procedure: Compound Pl provided the following results with High fat diet-induced obese mice: Female CFLP mice were fed on a high protein, high fat diet. After 13 weeks the obese mice (mean wt. 49g) were selected and randomized into groups of 12. The compound (20 mg/kg, p.o.) or water was given once daily for 28 days and the mice were killed the day after the last dose. Results are means ± S.E, with numbers of determinations in parentheses.

[6] = total dose on days 6 and 7 5 mg/kg
[7] = total dose on days 6 and 7 10 mg/kg
[8] = total dose on days 6 and 7 25 mg/kg
[9] = 2.5 mg/kg body wt. p.o. daily for 28 days
[10] = 2.5 mg/kg body wt. p.o. twice daily for 28 days
[11] = 5 mg/kg body wt. p.o. daily for 28 days
[12] = 10 mg/kg body wt. p.o. daily for 28 days
[13] = 15 mg/kg body wt. p.o. daily for 28 days

COC(=O)COc1ccc(C[C@@H](C)NC[C@H](O)c2cccc(Cl)c2)cc1 (racemic) [Compound P2, N-(2-(4-carbomethoxymethoxyphenyl)-1-methylethyl)--2-hydroxy-2-(3-chlorophenyl)ethanamine nydrobromide]
% Reduction Total cholesterol [1, 6]: 24% | % Reduction LDL + VLDL cholesterol [1, 6]: 29% | % Reduction Total cholesterol [1, 7]: 22% | % Reduction LDL + VLDL cholesterol [1, 7]: 28% | % Reduction Total cholesterol [1, 8]: 34% | % Reduction LDL + VLDL cholesterol [1, 8]: 55%

COC(=O)c1ccc(C[C@@H](C)NC[C@H](O)c2ccccc2)cc1 (racemic) [Compound P3, N-[2-(4-carbomethoxyphenyl)-1-methylethyl]-2-hydroxy-2-phenylethanamine hemifumarate]
HDL cholesterol % change (Obese subjects [2]; 1st 6 weeks, initial 1.50±0.07 mM (15), placebo -10±3): 0±4% | Serum triglyceride % change (Obese subjects [2]; 1st 6 weeks, initial 1.57±0.18 mM (15), placebo -12±5): -25±5% | Serum cholesterol % change (Obese subjects [2]; 1st 6 weeks, initial 6.10±0.24 mM (15), placebo -13±3): -9±3% | Serum triglyceride % change (Obese subjects [2]; 2nd 6 weeks (after crossover), initial 1.21±0.18 mM (15), placebo +33±10): -4±8% | HDL cholesterol % change (Obese subjects [2]; 2nd 6 weeks (after crossover), initial 1.30±0.04 mM (15), placebo -5±4): +14±3% | Serum cholesterol % change (Obese subjects [2]; 2nd 6 weeks (after crossover), initial 5.30±0.29 mM (15), placebo +4±3): +5±3% | Plasma Cholesterol (Zucker fa/fa male rats; water 3.44 ± 0.10, p < 0.05): 3.07 ± 0.14 mM | Plasma Triglyceride (Zucker fa/fa male rats; water 9.3 ± 0.7, p < 0.02): 5.9 ± 0.9 mM | Serum triglyceride % Fall (Obese subjects [3]; initial 2.05±0.16 mM (4), subjects with initial levels below 1 mM excluded, placebo 21±7): 52±6% | Serum cholesterol % Fall (Obese subjects [3]; initial 5.81±0.44 mM (5), placebo 19±5): 21±7% | Serum cholesterol (Male rats; control 52±2): 54±3 mg/100ml | Serum triglyceride (Male rats; control 112±10, P < 0.05): 70±4 mg/100ml

COC(=O)c1ccc(CC(C)NCC(O)c2ccc(O)c(CO)c2)cc1 (centres unmarked) [Compound P1, N-(2-(4-carbomethoxghenyl)-1-metnylethyl) -2-hydroxy-2-(4-hydroxy-3-hydroxymethylphenyl) ethanamine]
Serum triglyceride (normal mice; [9]): 21.5±1.1 mg/100 ml | Serum cholesterol (normal mice; [9]): 67.0±3.2 mg/100 ml | Serum triglyceride (normal mice; [10]): 16.4±0.8 mg/100 ml | Serum cholesterol (normal mice; [10]): 74.4±1.7 mg/100 ml | Serum triglyceride (normal mice; [11]): 16.3±1.1 mg/100 ml | Serum cholesterol (normal mice; [11]): 69.1±2.4 mg/100 ml | Serum triglyceride (normal mice; [12]): 14.5±0.7 mg/100 ml | Serum cholesterol (normal mice; [12]): 68.4±3.3 mg/100 ml | Serum triglyceride (normal mice; [13]): 14.3±0.8 mg/100 ml | Serum cholesterol (normal mice; [13]): 71.0±2.4 mg/100 ml | Serum triglyceride ([4]; control 35±4, P < 0.05): 22±3 mg/100 ml | Serum cholesterol ([4]; control 82±4): 81±6 mg/100 ml | Serum triglyceride ([5]; control 73±8, P < 0.01): 34±2**(12) mg/100ml | Serum cholesterol ([5]; control 118±3, P < 0.05): 103±5*(12) mg/100ml
